Source: US20260078341A1, “TREATMENT OF CANCER USING CHIMERIC ANTIGEN RECEPTOR” (Novartis AG, priority 2014, published 2026)
Several values for one entry are separate records, joined by “and”; a condition that tells them apart may be missing. Equal entries are not always repeated. Where two headings read alike, the source gives them in different places.

Key:
[1] = system: PD-1 positive CD4 and CD8 T cells; type: in vivo, human
[2] = N = 53

## CO[C@H]1C[C@@H]2CC[C@@H](C)[C@@](O)(O2)C(=O)C(=O)N2CCCC[C@H]2C(=O)O[C@H]([C@H](C)C[C@@H]2CC[C@@H](OCCO)[C@H](OC)C2)CC(=O)[C@H](C)/C=C(\C)[C@@H](O)[C@@H](OC)C(=O)[C@H](C)C[C@H](C)/C=C/C=C/C=C/1C [RAD001, (1R,9S,12S,15R,16E,18R,19R,21R,23S,24E,26E,28E,30S,32S,35R)-1,18-dihydroxy-12-{(1R)-2-[(1S,3R,4R)-4-(2-hydroxyethoxy)-3-methoxycyclohexyl]-1-methylethyl}-19,30-dimethoxy-15,17,21,23,29,35-hexamethyl-11,36-dioxa-4-azatricyclo[30.3.1.0^4,9]hexatriaconta-16,24,26,28-tetraene-2,3,10,14,20-pentaone]
[1]; in vivo
  decrease in PD-1 positive CD8 T cells compared to placebo cohort: 37.4% and 41.4%
[1]; week 6, pooled RAD cohort (n=84), p=0.03
  decrease in PD-1 positive CD4 T cells compared to placebo cohort: 30.2%
[1]; week 12, pooled RAD cohort, p=0.05
  decrease in PD-1 positive CD4 T cells compared to placebo cohort: 32.7%
[2]; RAD001 0.5 mg daily
  Treatment-related AE: Blood cholesterol increased: 2 (3.8%) n (%)
  Treatment-related AE: Conjunctivitis: 0 n (%)
  Treatment-related AE: Diarrhea: 1 (1.9%) n (%)
  Treatment-related AE: Dry mouth: 0 n (%)
  Treatment-related AE: Dyspepsia: 0 n (%)
  Treatment-related AE: Erythema: 0 n (%)
  Treatment-related AE: Fatigue: 0 n (%)
  Treatment-related AE: Headache: 0 n (%)
  Treatment-related AE: Insomnia: 1 (1.9%) n (%)
  Treatment-related AE: Limb discomfort: 0 n (%)
  Treatment-related AE: Low density lipoprotein increased: 2 (3.8%) n (%)
  Treatment-related AE: Mouth ulceration: 6 (11.3%) n (%)
  Treatment-related AE: Mucosal inflammation: 0 n (%)
  Treatment-related AE: Neutropenia: 0 n (%)
  Treatment-related AE: Oral pain: 0 n (%)
  Treatment-related AE: Paresthesia oral: 2 (3.8%) n (%)
  Treatment-related AE: Pruritus: 0 n (%)
  Treatment-related AE: Stomatitis: 0 n (%)
  Treatment-related AE: Thrombocytopenia: 0 n (%)
  Treatment-related AE: Tongue ulceration: 3 (5.7%) n (%)
  Treatment-related AE: Urinary tract infection: 0 n (%)
  Treatment-related AEs: Patients with AE(s): 22 (41.5%) n (%)
  Treatment-related AEs: Total AE(s): 35 n (%)
[2]; RAD001 5 mg weekly
  Treatment-related AE: Blood cholesterol increased: 2 (3.8%) n (%)
  Treatment-related AE: Conjunctivitis: 2 (3.8%) n (%)
  Treatment-related AE: Diarrhea: 4 (7.5%) n (%)
  Treatment-related AE: Dry mouth: 0 n (%)
  Treatment-related AE: Dyspepsia: 3 (5.7%) n (%)
  Treatment-related AE: Erythema: 2 (3.8%) n (%)
  Treatment-related AE: Fatigue: 2 (3.8%) n (%)
  Treatment-related AE: Headache: 2 (3.8%) n (%)
  Treatment-related AE: Insomnia: 2 (3.8%) n (%)
  Treatment-related AE: Limb discomfort: 2 (3.8%) n (%)
  Treatment-related AE: Low density lipoprotein increased: 1 (1.9%) n (%)
  Treatment-related AE: Mouth ulceration: 2 (3.8%) n (%)
  Treatment-related AE: Mucosal inflammation: 0 n (%)
  Treatment-related AE: Neutropenia: 0 n (%)
  Treatment-related AE: Oral pain: 2 (3.8%) n (%)
  Treatment-related AE: Paresthesia oral: 0 n (%)
  Treatment-related AE: Pruritus: 2 (3.8%) n (%)
  Treatment-related AE: Stomatitis: 0 n (%)
  Treatment-related AE: Thrombocytopenia: 0 n (%)
  Treatment-related AE: Tongue ulceration: 1 (1.9%) n (%)
  Treatment-related AE: Urinary tract infection: 0 n (%)
  Treatment-related AEs: Patients with AE(s): 20 (37.7%) n (%)
  Treatment-related AEs: Total AE(s): 46 n (%)
[2]; RAD001 20 mg weekly
  Treatment-related AE: Blood cholesterol increased: 2 (3.8%) n (%)
  Treatment-related AE: Conjunctivitis: 0 n (%)
